The values below come from US9193699B2, “Apoptosis inducing compounds” (INSTITUT NATIONAL DE LA SANTE ET DE LA RECHERCHE MEDICALE …, priority 2011, dated 2015).

Assay [1] has as its system Human normal mammary epithelial MCF-10A cells. The assay is described as follows: Effect on growth of normal cells (alamar blue), MCF-10A. It is filed as cell-based. Particulars: calculated on the basis of cell growth inhibition. On the procedure:
(§1) All biological experiments (Examples 2 to 9) have been performed with recommended cell line specific culture medium. For SUM149 and L226, culture medium is supplemented with 10% Fetal Calf Serum. For HME-1 and MCF-10A, culture medium is supplemented with 5% Horse Serum.
Human normal mammary epithelial MCF-10A cells were plated in a 96 well plate at 3000 cells/100 μL at 37° C. in 5% CO2. Serial dilutions of drugs (compounds 1, 3 or 4) ranging from 20 μM to 300 nM were added at day 0 and day 3. The number of viable cells was determined in triplicate at day 5 by incubating 10 μL of the alamar blue staining solution for 2 hours at 37° C. (FIG. 5).
(§2) IC50 values of compounds 1-14 for the inhibition of MCF-10A and HME-1 normal cells growth were also measured (according to the experimental procedure of Examples 4 and 5): […]

The test system of assay [2] is caspase-3 and caspase-7 in HME-1 cells. The assay is described as follows: Caspase 3/7 activation (Caspase-Glo 3/7) in HME-1 normal cells. It is filed as cell-based. Particulars: Homo sapiens, HME1, R=RLU at 20 μM/RLU at 0 μM, 24 h, read-out: Caspase 3/7 activation R (RLU fold increase from untreated cells). On the procedure:
Human normal mammary epithelial HME-1 cells were plated in a 96 well plate at 10000 cells/100 μL at 37° C. in 5% CO2. Serial dilutions of drugs (compounds 1, 3 or 4) ranging from 20 μM to 300 nM were added at day 0. Active caspase-3 and caspase-7 were measured in triplicate after 24 h treatment by incubating 50 μL of the Caspase-Glo 3/7 reagent for 60 min at 25° C. This reagent containing the proluminescent tetrapeptide sequence DEVD in a cell lysis buffer (Promega) (FIG. 8).
(§3) The calculated values R correspond to Relative Luminescence Units (RLU) fold increase from untreated cells (R=RLU at 20 μM/RLU at 0 μM).
(§4) Caspase 3/7 activation in MCF-10A and HME-1 normal cells was also measured.

The subject of assay [3] is caspase-3 and caspase-7 in MCF-10A cells. Description: Caspase 3/7 activation (Caspase-Glo 3/7) in MCF-10A normal cells. Particulars: Homo sapiens, R=RLU at 20 μM/RLU at 0 μM, 24 h, read-out: Caspase 3/7 activation R (RLU fold increase from untreated cells). The format is cell-based. The procedure:
Human normal mammary epithelial MCF-10A cells were plated in a 96 well plate at 10000 cells/100 μL at 37° C. in 5% CO2. Serial dilutions of drugs (compounds 1, 3 or 4) ranging from 20 μM to 300 nM were added at day 0. Active caspase-3 and caspase-7 were measured in triplicate after 24 h treatment by incubating 50 μL of the Caspase-Glo 3/7 reagent for 60 min at 25° C. This reagent containing the proluminescent tetrapeptide sequence DEVD in a cell lysis buffer (Promega) (FIG. 9).
as §3, §4

In assay [4] the test system is Human normal mammary epithelial HME-1 cells. Description: Effect on growth of normal cells (alamar blue), HME-1. The following applies: HME1, calculated on the basis of cell growth inhibition. The format is cell-based. On the procedure: as §1
Human normal mammary epithelial HME-1 cells were plated in a 96 well plate at 3000 cells/100 μL at 37° C. in 5% CO2. Serial dilutions of drugs (compounds 1, 3 or 4) ranging from 20 μM to 300 nM were added at day 0 and day 3. The number of viable cells was determined in triplicate at day 5 by incubating 10 μL of the alamar blue staining solution for 2 hours at 37° C. (FIG. 4).
as §2

Assay [5] concerns caspase-3 and caspase-7 in L226 cells. The assay is described as follows: Caspase 3/7 activation (Caspase-Glo 3/7) in L226 tumor cells. It is filed as cell-based. The following applies: Homo sapiens, R=RLU at 20 μM/RLU at 0 μM, 24 h, read-out: Caspase 3/7 activation R (RLU fold increase from untreated cells). The procedure: Human breast tumor L226 cells were plated in a 96 well plate at 10000 cells/100 μL at 37° C. in 5% CO2. Serial dilutions of drugs (compounds 1, 3 or 4) ranging from 20 μM to 300 nM were added at day 0. Active caspase-3 and caspase-7 were measured in triplicate after 24 h treatment by incubating 50 μL of the Caspase-Glo 3/7 reagent for 60 min at 25° C. This reagent containing the proluminescent tetrapeptide sequence DEVD in a cell lysis buffer (Promega) (FIG. 7).
(§5) Caspase 3/7 activation in SUM149 and L226 tumor cells was measured.
as §3

Assay [6] concerns tumors derived from MMTC-ErbB2/neu mice. Description: TUNEL assay of tumor apoptosis in MMTV-ErB2/Neu mice. The format is in vivo. The following applies: 100 mg/kg for 30 days. On the procedure: DNA fragmentation in apoptotic cells was analyzed by the TUNEL assay (ApopTag detection kit, Millipore) as recommended by the manufacturer.
Briefly, 4 μm sections of paraffin-embedded fixed tissue from tumors derived from MMTC-ErbB2/neu mice treated with vehicle or with Compound 12, 4 or 8 (100 mg/kg) for 30 days, were deparaffined with successive histolemon and ethanol washes, then treated with 20 μg/mL proteinase K for 15 min at room temperature. Endogenous peroxidise was quenched with 3% hydrogen peroxide. […] Coloration was performed using the diaminobenzidine mixed substrate (Dako). Counterstaining was done with a solution of 1% methyl green for 5 min at room temperature. After distilled water and N-butanol washes, specimens were mounted in Pertex medium (CellPath). Observations were made using the Leica DMD108 digital microimaging device (Leica Microsystems GmbH).

Assay [7] concerns caspase-3 and caspase-7 in SUM149 cells. Description: Caspase 3/7 activation (Caspase-Glo 3/7) in SUM149 tumor cells. It is filed as cell-based. The following applies: Homo sapiens, R=RLU at 20 μM/RLU at 0 μM, 24 h, read-out: Caspase 3/7 activation R (RLU fold increase from untreated cells). On the procedure:
Human breast tumor SUM149 cells were plated in a 96 well plate at 10000 cells/100 μL at 37° C. in 5% CO2. Serial dilutions of drugs (compounds 1, 3 or 4) ranging from 20 μM to 300 nM were added at day 0. Active caspase-3 and caspase-7 were measured in triplicate after 24 h treatment by incubating 50 μL of the Caspase-Glo 3/7 reagent for 60 min at 25° C. This reagent containing the proluminescent tetrapeptide sequence DEVD in a cell lysis buffer (Promega) (FIG. 6).
as §5, §3

The subject of assay [8] is Human breast tumor L226 cells. The assay is described as follows: Inhibition of tumor cell growth (alamar blue), L226. It is filed as cell-based. The following applies: 120 h, calculated on the basis of cell growth inhibition, day 5, alamar blue. The procedure: as §1
Human breast tumor L226 cells (Inflammatory Breast Cancer (IBC) of ERB-B2 subtype) were plated in a 96 well plate at 3000 cells/100 μL at 37° C. in 5% CO2. Serial dilutions of drugs (compounds 1, 3 or 4) ranging from 20 μM to 300 nM were added at day 0 and day 3. The number of viable cells was determined in triplicate at day 5 by incubating 10 μL of the alamar blue staining solution for 2 hours at 37° C. (FIG. 3).
IC50 values of compounds 1-14 for the inhibition of SUM149 and L226 tumor cells growth were measured (according to the experimental procedure of Examples 2 and 3): […]

SMILES strings stand for the structures. pIC50: −log10 of the molar value.

Broadly, the pIC50 is the negative decadic logarithm of the IC50, by convention in mol/L. Consider `Cc1cc(C)c(C)c(S(=O)(=O)N2CCSC(C)(C)[C@@H]2C(=O)NO)c1C` [Compound 4, (3S)—N-hydroxy-4-[(2,3,5,6-tetramethylphenyl)sulfonyl]-2,2-dimethyl-3-thiomorpholine carboxamide], for which the pIC50 is 4.70 in assay [1], less than 4.70 in assay [4] and 5.60 in assay [8]. In addition, the fold induction at 20 µM in assay [2] came to 1; in assay [3], 1; in assay [5] it was 7.4; in assay [7], 4.4. Besides, the “percentage of cells having TdT positive nuclei in tumors” value in assay [6] is recorded as 50%.
Take `Cc1c(C)c(C)c(S(=O)(=O)N2CCSC(C)(C)[C@@H]2C(=O)NO)c(C)c1C` [Compound 12, (3S)—N-hydroxy-4-[(2,3,4,5,6-pentamethylphenyl)sulfonyl]-2,2-dimethyl-3-thiomorpholine carboxamide]: the pIC50 was 4.82 in assay [1], less than 4.70 in assay [4] and 5.70 in assay [8]. For the same compound, the fold induction at 20 µM in assay [2] stood at 1.2; in assay [3], 1.1; in assay [5] it was 6.2; in assay [7] it was 6.8. For the same compound, the “percentage of cells having TdT positive nuclei in tumors” value in assay [6] is listed as 70%.
